Assay in all cases: NCI-60 cell line screen, 48 h
Test [1] concerns HT-29.
For test [2], the system named is COLO 205.
The subject of test [3] is NCI-H23.
Test [4] concerns SK-OV-3.
For test [5], the system named is A549.
Test [6] concerns IGROV-1.
Test [7] relates to HCT-15.
Test [8] has as its system K562.
In test [9] the test system is M14.
In test [10] the test system is SK-MEL-28.
Test [11] deals with ACHN.
The subject of test [12] is HOP-62.
Test [13] relates to NCI-H226.
Test [14] concerns OVCAR-3.
Test [15] has as its system RPMI-8226.
Test [16] relates to LOX IMVI.
The subject of test [17] is SR.
Test [18] relates to U-251.

We go through nine molecules from ChEMBL document CHEMBL1201862, “PubChem BioAssay data set” (2004).

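Five concentrations, 48 hours, 96-well plates. At the GI50, growth is halved.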 The source made the active and inactive calls. Cut-off read from the data, not from the text of the source: active = GI50 up to about 1.1 µM and inactive = higher.

As for `CN(C)CCNC(=O)Cc1ccccc1Nc1c(Cl)cccc1Cl`, the GI50 in test [1] was 10.3 µM (inactive); in [2], 16.4 µM (inactive); in [3], 18.4 µM (inactive); in [4], 17.6 µM (inactive); in [5], 18 µM (inactive); in test [6], 19.1 µM (inactive). The GI50 is 15.6 µM in test [7]; 15.3 µM (inactive) in test [8]; 17.3 µM (inactive) in test [9]; 18.5 µM (inactive) in test [10]; 19 µM (inactive) in test [11]; 15 µM (inactive) in test [12]. In addition, the GI50 was 17.9 µM (inactive) in test [13]; 17.2 µM (inactive) in test [14]; 16.6 µM (inactive) in [15]; 13.6 µM (inactive) in [16]; 15.2 µM (inactive) in test [17]; 10.9 µM (inactive) in test [18].
Turning to `CC(Oc1ccc2cc(C(=O)c3ccccc3)c(=O)oc2c1)C(=O)O` (centres undefined), the GI50 in test [1], in [2], in test [3], in test [4], in [5] and in [6] was > 100 µM (inactive) each time. For the same molecule, the GI50 in test [8], in test [9], in test [10], in test [11], in test [12] and in test [13] was > 100 µM (inactive) throughout. Further, the GI50 in [14], in test [16], in [17] and in test [18] was > 100 µM (inactive) each time.
On to `c1ccc(Nc2nnc(CSc3nc(-c4ccccc4)c(-c4ccccc4)[nH]3)s2)cc1`, for which the GI50 in [1] was 15.2 µM (inactive); in test [2], 12.3 µM (inactive); in test [3], 21.3 µM (inactive); in test [4], 22.8 µM (inactive); in test [5] it was 28.4 µM (inactive); in test [6] it was 21.3 µM (inactive). In addition, the GI50 is 18.1 µM in test [7]; 14.7 µM (inactive) in test [9]; 24.2 µM (inactive) in test [10]; 26.3 µM (inactive) in test [11]; 21.1 µM (inactive) in test [12]; 14.9 µM (inactive) in test [13]. Besides, the GI50 in [14] is 10.5 µM (inactive); in test [15] it was 11.5 µM (inactive); in [16], 17 µM (inactive); in [17] it was 20.6 µM (inactive); in test [18], 13.7 µM (inactive).
As for `C[C@@H]1C(=O)CC2C(C)(C)CCC[C@]2(C)[C@@]12CC[C@]1(C=COC1)O2` (some centres undefined), the GI50 in test [1] is 28.2 µM (inactive); in test [2] it was 32.3 µM (inactive); in [4] it was 27.5 µM (inactive); in [5], 36.1 µM (inactive); in [6], 36.9 µM (inactive); in test [7], 30.5 µM. Further, the GI50 was 24.3 µM (inactive) in test [8]; 29.4 µM (inactive) in test [9]; 32.5 µM (inactive) in [11]; 50.8 µM (inactive) in test [12]; 91 µM (inactive) in [13]; 36.4 µM (inactive) in test [14]. The GI50 was 33.4 µM (inactive) in test [16] and 22 µM (inactive) in [17].
For the molecule `Cc1cc(=O)oc2cc(OCCCOc3ccc4c(C)cc(=O)oc4c3)ccc12`, the GI50 in test [1] was > 100 µM (inactive); in test [2], > 100 µM (inactive); in [3], > 100 µM (inactive); in [5], > 100 µM (inactive); in [6] it was > 100 µM (inactive); in test [7], greater than 100 µM. Further, the GI50 in test [8] was > 100 µM (inactive); in test [9] it was > 100 µM (inactive); in [10], > 100 µM (inactive); in test [11], > 100 µM (inactive); in test [12] it was 63.8 µM (inactive); in test [13], > 100 µM (inactive). Besides, the GI50 in [14], in [15], in test [16], in test [17] and in test [18] was > 100 µM (inactive) throughout.
In the case of `CC1CC(C)C(C(O)CC2CC(=O)N(c3ccccc3)C(=O)C2)C(O)C1` (centres undefined), the GI50 in test [1], in test [2], in test [3], in test [4], in test [5] and in test [6] was > 100 µM (inactive) throughout. For the same molecule, the GI50 in test [8], in test [9], in test [10], in test [11], in test [12] and in test [13] was > 100 µM (inactive) throughout. Also, the GI50 in test [14], in test [15], in [16], in [17] and in test [18] was > 100 µM (inactive) throughout.
Consider `CC1=C(C(=O)Nc2ccc([N+](=O)[O-])cc2)C(c2ccc3c(c2)OCO3)C(C(=O)Nc2ccc([N+](=O)[O-])cc2)=C(C)N1`, for which the GI50 is 6.95 µM (inactive) in test [1]; 4.13 µM (inactive) in test [2]; 5.78 µM (inactive) in test [3]; > 100 µM (inactive) in test [4]; 24.2 µM (inactive) in test [5]; 8.41 µM (inactive) in [6]. Besides, the GI50 in test [7] was 8.09 µM; in test [8], 4.15 µM (inactive); in test [9], 6.78 µM (inactive); in test [10] it was 24.9 µM (inactive); in test [11], 10.1 µM (inactive); in [12], 37.6 µM (inactive). The GI50 in test [13] is 14.7 µM (inactive); in [14], 6.43 µM (inactive); in [15], 5.04 µM (inactive); in [17], 1.98 µM (inactive); in [18] it was 30.1 µM (inactive).
Regarding `CCOC(=O)Cc1nc2ccccc2s1`, the GI50 in [1] was 19.6 µM (inactive); in test [2], 38.6 µM (inactive); in test [3], 15.6 µM (inactive); in test [4], 50.9 µM (inactive); in [5], 22.9 µM (inactive); in test [6], 39 µM (inactive). Also, the GI50 in test [8] was 25.4 µM (inactive); in test [9], 16.6 µM (inactive); in test [10] it was 15 µM (inactive); in [11], 17.1 µM (inactive); in test [12], 22.9 µM (inactive); in [13] it was 21.8 µM (inactive). For the same molecule, the GI50 in test [14] was > 10 µM (inactive); in test [16], 17.8 µM (inactive); in [17] it was 20.1 µM (inactive); in test [18] it was 17 µM (inactive).
Turning to `CC(C)c1cc(OCC(O)CO)cc(C(C)C)c1` (centres undefined), the GI50 in test [1], in [2], in [3], in test [4], in test [5] and in test [6] was > 100 µM (inactive) throughout. In addition, the GI50 in test [7] was greater than 100 µM; in test [8], > 100 µM (inactive); in test [9], > 100 µM (inactive); in [10], > 100 µM (inactive); in test [11] it was > 100 µM (inactive); in [12], > 100 µM (inactive). Besides, the GI50 in test [13], in test [14], in test [16], in test [17] and in [18] was > 100 µM (inactive) in each case.
